Source: ChEMBL document CHEMBL3507680, “University of Dundee, Gates Library screen for HepG2 cell viability”

Test: Human HepG2 cell viability assay in 384 well format
Format: toxicity, cell-based
Parameters: dose 125 nL, time 70.5 hour; concentration not given beside the values
Conditions: HepG2 cells, read-out: Inhibition

Compound	cytotoxicity at 70.5 h
O=C(CCCNC(=O)NCC1CCCO1)Nc1ccc(Cl)cc1 (stereo not given)	-8.55%
CN(CCCc1cc(-c2ccc(F)cc2)n(C)n1)CC(=O)NC(N)=O	-8.03%
Cc1ncsc1CNC(=O)NCC1(c2ccc3c(c2)OCO3)CC1	19%
O=C(Nc1ccc(F)cc1)C1CSCN1 (stereo not given)	-10.2%
N#CCCN(CCN1CCOCC1)Cc1ccc(F)c(Br)c1	-3.12%
O=C(NCCn1cccc1)c1c(O)cc(F)cc1F	-6.2%
CC(C)c1nncn1CCNC(=O)c1c(O)cc(F)cc1F	-4.67%
CC(C)(C)OC(=O)N1CCN(S(C)(=O)=O)C2(CCCCC2)C1	-1.8%
O=C(NCC1(O)CCSC1)c1cccc(-n2cccn2)c1 (stereo not given)	-10.4%
CC(C)(NS(C)(=O)=O)c1nc(-c2ccncc2)no1	18.6%
COc1ccc(CN(CCC#N)CCN2CCOCC2)cc1OC	-10.2%
OC(CNC1CCSCC1)c1cccc(OCc2ccccc2)c1 (stereo not given)	23.4%
O=C(OCc1cc(=O)n2cc(Br)ccc2n1)c1ccc2c(c1)OCO2	-5.88%
Cc1ccc2cccc(S(=O)(=O)N(C)CC3CCN(C)CC3)c2n1	-7.7%
Cc1ccc2cccc(S(=O)(=O)N(C)CC3CCN(C)C3)c2n1 (stereo not given)	-0.784%
O=C(NCC1(O)CCC1)c1cccc(-n2cccn2)c1	-11.6%
CCC(O)CN(C)Cc1nnc2ccccn12 (stereo not given)	9.61%
O=C1CN(c2ccc(CNc3cncc(-n4cccn4)n3)cc2)CCN1	-0.149%
CC(C)(C)c1cnc(CN2CCC(NC(=O)NC3CCCCC3)CC2)o1	1.07%
CCCNC(=O)c1ccc(-c2ccco2)[nH]c1=O	-2.1%
CC(C)CCNC(=O)c1ccc(-c2ccco2)[nH]c1=O	-1.63%
CCc1noc(CN(CC(=O)N2CCCCC2)c2cccc(C)c2)n1	-3.01%

Compound	cytotoxicity at 70.5 h
Cc1nc(-c2ccco2)ccc1C(=O)N1CCc2nnc(N)cc2C1	-1.99%
CCc1nnsc1C(=O)NC1CCN(CCOc2ccc(Br)cc2)CC1	-4.31%
Cc1nsc(N2CCN(C(=O)Nc3cccc(C#N)c3)CC2)n1	-0.0722%
Cc1nc(-c2ccccc2)sc1CSCCC(N)=O	12.1%
CC(=O)Nc1ccc(F)c(S(=O)(=O)NC(C)(C)C)c1	-6.2%
CCN1CCC2(CC1)CC(CC(=O)N(C)C)c1ccc(F)cc12 (stereo not given)	33.5%
CN1CCN(Cc2cn3c(n2)CN(Cc2ccncc2)CC3)CC1	14%
O=C(Cc1ccsc1)N1C[C@H]2CCC[C@@]2(COCc2ccccn2)C1	10.5%
COCc1cnc2n1CCN(C(=O)c1cn(C)c3ccccc13)C2C (stereo not given)	-5.93%
O=C(CC1CC2(CCNCC2)c2ccccc21)NCC1CC1 (stereo not given)	11.3%
Cn1cc(CNC2CCc3c(ccc(=O)n3C)C2)cn1 (stereo not given)	-2.72%
CC(C)OC[C@H]1CCC[C@]12CN(C(=O)C1CCOCC1)CCO2	-8.49%
COC[C@@H]1CCC[C@@]12CN(C(=O)N1CCCC1)CCO2	-12.3%
CC(=O)NCc1nnn2c1CN(c1ncccn1)CCC2	-7.48%
O=C(C1CCOCC1)N1C[C@H]2CCC[C@@]2(COCc2ccccn2)C1	-10.2%
Cc1ccc(CNC(=O)c2nc3c(n2C)CCN(c2ncccn2)C3)o1	-1.28%
COc1nn(C)c2c1CCCN(C(=O)c1cscn1)C2	2.23%
COc1nn(C)c2c1CCCN(C(=O)c1cnccn1)C2	1.47%
COCC(=O)NCc1cc(=O)n2c(n1)CN(Cc1ccncc1)CCC2	-0.67%
O=C(C1CCOCC1)N1CC[C@H](O)[C@@H]1Cc1cccnc1	-0.0587%
CN1CCC2(CCN(C(=O)c3cccnc3)C2)C1 (stereo not given)	0.955%
O=C(C1=CCCC1)N1C[C@@H]2COC[C@]2(COCc2ccncc2)C1	-3.75%

Compound	cytotoxicity at 70.5 h
COCCNC(=O)[C@H]1CO[C@H]2CCN(Cc3cccs3)C[C@H]2C1	-1.82%
c1ccc(CO[C@@H]2CN(Cc3ccoc3)[C@@H]3COC[C@@H]32)nc1	13%
O=C(c1ccncc1)N1CCC2(CC1)CCN(C(=O)c1cccnc1)C2	-7.65%
CCO[C@H]1CC[C@H]2[C@@H]1OCCN2C(=O)COc1ccccc1	27.1%
CS(=O)(=O)NC[C@]12COC[C@H]1CN(C(=O)C1CC(F)(F)C1)C2	-2.39%
Cc1cnc(N2CCc3c(c(COc4cncnc4)nn3C)C2)nc1	-6.03%
CN(Cc1cncnc1)[C@H]1CN(C(=O)c2ccco2)[C@@H]2CCCO[C@@H]21	-10.9%
CN(Cc1cncnc1)[C@H]1CN(C(=O)c2ccc[nH]2)[C@@H]2CCCO[C@@H]21	-8.37%
CS(=O)(=O)NC[C@]12COC[C@H]1CN(C(=O)C1CC=CC1)C2	-3.37%
CNC(=O)[C@@H]1C[C@@H]2CCN(Cc3ccoc3)C[C@H]2O1	-6.85%
O=C(c1cscn1)N1CC[C@H]2C[C@H](c3nnc(C4CC4)o3)O[C@@H]2C1	-10.6%
CCOCCn1c(=O)[nH]c2cc(C(=O)N(C)Cc3cnn(C)c3)ccc21	-4.48%
CSc1nccc(N2CCC3(CCCN(Cc4ccc(F)cc4)C3)C2)n1 (stereo not given)	-3.25%
CNc1nc(C(=O)N2CCCC(COc3ccc(F)cc3)C2)cs1 (stereo not given)	3.44%
O=C(c1onc2ccccc12)N1CCC2(CCCNC2)C1 (stereo not given)	-16.6%
CN(Cc1csc(-c2cccs2)n1)Cc1cccnc1N	-14.6%
COCCN(Cc1ccc(C)cc1)CC1CCOC1 (stereo not given)	-5.9%
CCn1cnnc1CN(C)Cc1nc(-c2cc(OC)ccc2F)oc1C	-6.85%
CCCn1nc(C)c2c1NC(=O)CC2c1ccc(CN2CCCC2)s1 (stereo not given)	-9.08%
CCc1cnc(C)nc1NCCSc1nnc(C)n1CC	0.501%
Cn1c(Cn2ccnc2)nnc1C1CCCN(Cc2ccncc2)C1 (stereo not given)	14%
CCC(NC(=O)CCNC(=O)c1ccccc1F)c1cc(C)ccn1 (stereo not given)	-0.798%

Compound	cytotoxicity at 70.5 h
CCCN(Cc1ccc(C(=O)NCC2COCCO2)c(=O)[nH]1)C1CC1 (stereo not given)	50.6%
CN1CC2(CCCN(CCOCc3ccccc3)C2)OC1=O (stereo not given)	-3.02%
CC(C)[C@@H]1CN(C(=O)CCn2ccccc2=O)C[C@H]1NS(C)(=O)=O	-7.19%
COc1ncccc1-c1cc(C(N)=O)ccn1	19.5%
Cc1ccc2nc(C)cc(C(=O)N3C[C@H]4CCC[C@@]4(CO)C3)c2c1	-6.32%
CN1CCC(Cc2nc(-c3cnccn3)n(Cc3ccccc3)n2)CC1	-4.63%
Cc1ncccc1Oc1ncnc(N2CCCC(O)(CO)CC2)c1C (stereo not given)	-16.4%
O=C(c1ccc[nH]1)N1CCc2ccc(S(=O)(=O)N3CCOCC3)cc2C1	3.25%
COC(=O)[C@@H]1CCCN1C(=O)c1cn(C/C=C/c2ccccc2)nn1	24.7%
O=C(c1cccc(Cl)c1)N1CC[C@@H](N2CCC(O)CC2)[C@H](O)C1	16%
Cc1cc(N2CCC3(CCCN(CCO)C3=O)C2)nc(C)c1C#N (stereo not given)	-18.8%
Cc1cc(C(=O)N2CCCC(Cn3cc(C4CC4)nn3)C2)nc(C)n1 (stereo not given)	-13.2%
c1ccc(CCCN2CCN(CCn3cncn3)CC2)cc1	-3.65%
CN(CC1=CCCN(Cc2cccc(C#N)c2)C1)C(=O)c1ccco1	-12.2%
Cc1noc(C)c1CN(C)C(=O)CN1CC(c2ccccc2)CC1=O (stereo not given)	-6.3%
Cc1cc(Cl)ccc1C(=O)N[C@H]1CN(S(C)(=O)=O)C[C@@H]1C1CC1	-0.333%
CCOCc1nc(-c2ccc(F)cc2Cl)n(C2CCN(C)CC2)n1	-17.9%
CCCN1CCCn2nc(CNC(=O)CCOC)cc2C1	-4.33%
COCC(NC1CSCCSC1)c1ccnn1C (stereo not given)	-13.2%
CCc1cc(NCCNC(C)=O)nc(N2CCCC2)n1	23.3%
CCCn1cnnc1CNC(=O)C1COc2cc(OC)ccc2C1 (stereo not given)	18.3%
CN(C)CCn1ccnc1C1CCCN(c2ncc(Cl)cc2F)C1 (stereo not given)	-3.65%

Compound	cytotoxicity at 70.5 h
Cc1cc(C(F)(F)F)nc(CCNC(C)Cn2cncn2)n1 (stereo not given)	-11.4%
CCn1cc(CN2CCC(CN3CCCCC3)CC2)cc1C#N	4.33%
c1cncc(COC[C@@H]2CCC[C@@]23CNCCO3)c1	8.38%
CCOC1COC2(CCN(CC3CC3)CC2)C1 (stereo not given)	11.6%
Cc1cccc(CN2C[C@@H]3COC[C@]3(CNC(=O)C3CCC3)C2)c1	-7.15%
CS(=O)(=O)N1CCC2(CC1)CC(NCc1ccco1)c1ccccc12 (stereo not given)	-1.03%
CC(C)C(=O)NC1CC2(CCN(CC(=O)N(C)C)CC2)c2ccccc21 (stereo not given)	-2.53%
COCC(=O)NCc1cc(=O)n2c(n1)CN(C)CCC2	-3.22%
FC1(F)CCN(Cc2ccccn2)CC12CCN(c1ncccn1)C2 (stereo not given)	-7.15%
COc1nn(C)c2c1CCCN(C(=O)c1cccc(C)n1)C2	-2.8%
CCC1=N[C@@]2(CC[C@@H]3CN(Cc4ccc(C)cc4)C[C@@H]32)C(=O)N1C	-2.71%
O=C(NCc1cccs1)[C@H]1CO[C@H]2CCN(C3CCCC3)C[C@H]2C1	4.95%
Cn1cccc1C(=O)N1CC2(CCN(C(=O)c3cccnc3)C2)C1	-7.36%
O=C(c1cc(C2CC2)on1)N1C[C@@H]2COC[C@]2(COc2cccnc2)C1	-4%
CN1C[C@H](NC(=O)c2cscn2)[C@@H]2OCCC[C@@H]21	-6.86%
COCCN1CCC2(COCc3cnc(-c4ccccc4)nc32)C1 (stereo not given)	-8.87%
Cn1nc(C(=O)N2CCOCC2)c2c1CN(CC1CC1)C2	-3.11%
CN(C)CCO[C@H]1CN(Cc2ccco2)[C@@H]2COC[C@H]12	-3.7%
CN(C)C(=O)CN1CCC2(COCc3cnc(-c4cccnc4)nc32)C1 (stereo not given)	-5.78%
O=C1COC2(CCN(Cc3cccnc3)CC2)CN1c1ccccc1	-8.85%
c1cc(CO[C@@H]2CN(Cc3ccoc3)[C@@H]3CCCO[C@@H]32)ccn1	-16%
Cc1cccc(CN2CCO[C@H]3[C@@H](OCc4ccncc4)CC[C@@H]32)n1	-7.09%
